Reference: US20250084056A1, “SUBSTITUTED OXOISOINDOLINYL PIPERIDINE-2,6-DIONE COMPOUNDS” (BRISTOL-MYERS SQUIBB COMPANY, priority 2023, published 2025)

Key:
Type in all cases: cell-based
Phospho-Rb (Ser807/811) = experiment: Phospho-Retinoblastoma (pRB) Cellular Assay; conditions: Homo sapiens, OVCAR-3, NIH OVCAR3 cells, 24 hours; for IC50: concentration giving 50% response; for Emax: maximum response, reference compound at 10 μM = 100%, read-out: pRB Ymax
Procedure: Phospho-Retinoblastoma (pRB) Cellular Assay
NIH OVCAR3 (HTB-161, American Type Culture Collection, Manassas VA) cells were grown up to passage 10 in culture media made up of RPMI (11835-030 Gibco, Grand Island NY), 20% HI FBS (16140-071, Gibco, Grand Island NY), and 0.01 mg/mL insulin from bovine pancreas (I6634-1G, Sigma Aldrich, St. Louis, MO).
The cells were seeded in a 384-well CulturPlate (6007688, Perkin Elmer, Waltham MA) at a density of 10,000 cells/well in 20 μL of the above culture media and incubated overnight at 37° C. and 5% CO2.
The next day, cells were treated using an Echo 650 (Beckman Coulter, Indianapolis IN) acoustic dispenser with 40 nL of compounds dissolved in DMSO at the appropriate serial dilutions (10 mM to […]). Cells were then incubated for 24 hours as above.
After 24 hours elapsed, media was removed from each well and shortly after 20 μL of the following mix was added: 12 μL deionized water, 4 μL lysis buffer, 4 μL of reconstituted antibody mix, and 1:100 phosphatase inhibitor. These components belong to the Phospho-Rb (Ser807/811) Cellular Kit (64RBS807PEY, Perkin Elmer, Waltham MA).
Plates were sealed and incubated away from light at room temperature for at least 4 hours before reading them on an EnVision plate reader (Perkin Elmer, Waltham MA) according to the kit manufacturer's protocol. The reference compound, N-(5-{[(5-tert-butyl-1,3-oxazol-2-yl)methyl]sulfanyl}-1,3-thiazol-2-yl)piperidine-4-carboxamide, at 10 μM was used to define 100% response. Assay results for each compound were reported as IC50, the concentration giving 50% response, and Ymax, the maximum response observed with the compound.

GSPT1 = GSPT1 (Homo sapiens, UniProt P15170+Q96SW2); experiment: GSPT1 Cellular Degradation Assay (DF15-GSPT1-ePL); set-up: expressed in transfected cells; conditions: DF15-GSPT1-ePL cells, 20 hours
Text: DF15-GSPT1-ePL was used for intracellular GSPT1 protein degradation detection in form of chemiluminescent signal, which was built on a human DF15 cell line (CVCL_Y429) with conditional co-expression of chimeric GSPT1 (target) and ePL/donor (enhanced ProLabel® by DiscoverX for enzyme fragment complementation with donor-acceptor pairing). The cells used the culture medium in two arrangements for assay and maintenance. During assay, it used Core-RPMI 1640 medium with 10% Fetal Bovine Serum (Heat Inactivated) and 1× Penicillin/Streptomycin; and during passage maintenance, used added ingredients: 0.1 mM NEAA, 1 mM sodium pyruvate, 25 mM Hepes, 0.1% Pluronic F-68, 1× Glutamin, 4 μg/mL Blasticidin (selection agent). Detection was performed on a 1536 well tissue culture plate (Corning #3727) with cells seeded in 3.5 μL core-RPMI 1640 at density of 0.25 million/mL after the pre-titrated test compounds in DMSO on ECHO plate were dispensed onto the assay plate by use of ECHO (liquid handing system via acoustic energy from Labcyte). Assay incubation lasted 20 hours in 37° C. incubator with 5% CO2; then followed by 30 minutes of plate-cooling at room temperature; then detection-reagent-mix was added in 3.5 μL/well with pre-defined proportion of enzyme acceptor, substrate, and lysis buffer. Plate signal reading for luminescence on an EnVision plate reader (PerkinElmer) was conducted after 60 minutes of former step at room temperature. Raw data was collected and processed with Dotmatics (data analyzer) for test compound's potency values. The reference compound, 3-[5-(3,6-dimethoxyisoquinolin-1-yl)-1-oxo-2,3-dihydro-1H-isoindol-2-yl]piperidine-2,6-dione, at […] was used to define 75% response. Assay results for each compound were reported as DC50, the concentration giving 50% response, and Dmax, the maximum response observed with the compound.

Cyclin E1 = Cyclin E1 (Homo sapiens, UniProt P24864+Q96SW2); experiment: Cyclin E1 Cellular Degradation Assay (MSD); set-up: endogenous in cells; host or cells: OVCAR3; conditions: for DC50 / Dmax: Cyclin E1 cellular degradation; for Dmax: maximum degradation; for Ratio of GSPT1 DC50/Cyclin E1 DC50: selectivity for degradation of Cyclin E1 over GSPT1
Procedure: Culturing cells: On Day 0, OVCAR3 cells were plated at 15,000 cells/well in 40 μL of culture medium (RPMI1640, 20% FBS, 0.01 insulin, 1% Anti/Anti) in a 384 well cell culture plate. Cell cultures were incubated for 24 hours at 37° C. and 5% CO2.
Coating MSD plates: On Day 1, rabbit anti-CCNE1 antibody (Abcam ab33911, 1 μg/mL in DPBS, […]) was dispensed to a Meso Scale Discovery plate (MSD L21XA). The MSD plate was spun briefly to ensure the solution coated the bottom of the well and incubated overnight at 4° C. On Day 2, the plate was washed 3 times with TBS +0.2% TWEEN, blocked for 1 hour with 3% MSD Blocker A (MSD R93AA-1, 30 μL/well), then washed again 3 times with TBS+0.2% TWEEN.
Treating and lysing cells: On Day 1, compounds of interest were dispensed into the cell cultures by acoustic dispensing technology. The cell cultures were then spun at 400 g for 4 minutes to disperse the compounds and incubated at 37° C. and 5% CO2 for 24 hours. After incubation, 40 μL of DPBS was added to the cell cultures to dilute the media. All liquid was gently discarded and immediately replaced with 30 μL of lysis buffer (MSD Tris Lysis buffer (MSD R60TX-2), Halt Protease inhibitor (ThermoFisher 78438), Phosphatase Inhibitor II (Sigma-Aldrich P5726), Phosphatase Inhibitor III (Sigma-Aldrich P0044), 0.02M PMSF (Sigma-Aldrich 7626), 0.1% SDS (VWR E719-100ML)). The plate was then sealed, shaken at 300 rpm at room temperature for 5 minutes, and freeze-thawed for optimum cell lysis.
Collecting data: After thawing, 25 μL of lysate was transferred to a coated MSD plate. The plate was then sealed and shaken at 300 rpm overnight in 4° C. On Day 3, the MSD plate was washed 3 times with TBS+0.2% TWEEN. Mouse anti-CCNE1 antibody (Abcam ab238081, 0.5 μg/mL in 1% MSD Blocker A, 10 μL/well) dispensed to the MSD plate, which was then sealed and shaken at room temperature for 3 hours. After the first antibody incubation, the plate was washed 3 times with TBS+0.2% TWEEN, then goat anti-mouse Sulfo-Tag antibody (MSD R32AC, 1 μg/mL in 1% MSD Blocker A, 10 μL/well) was dispensed to the MSD plate. The plate was sealed again and shaken at room temperature for 1 hour, then washed 3 times with TBS+0.2% TWEEN. After the final wash, 35 μL of 1× Read Buffer (MSD R92TC-1) was added to each well and the data was captured using the MSD plate reader. The reference compound, [2-(2,6-dioxopiperidin-3-yl)-4-methoxy-3-oxo-2,3-dihydro-1H-isoindol-5-yl]methyl N-[4-(3,4-difluorophenoxy)phenyl]carbamate, at […] was used to define […]. Assay results for each compound were reported as DC50, the concentration giving 50% response, and Dmax, the maximum response observed with the compound.

GSPT1, sequence (P15170 whole entry, the tested form may be a part): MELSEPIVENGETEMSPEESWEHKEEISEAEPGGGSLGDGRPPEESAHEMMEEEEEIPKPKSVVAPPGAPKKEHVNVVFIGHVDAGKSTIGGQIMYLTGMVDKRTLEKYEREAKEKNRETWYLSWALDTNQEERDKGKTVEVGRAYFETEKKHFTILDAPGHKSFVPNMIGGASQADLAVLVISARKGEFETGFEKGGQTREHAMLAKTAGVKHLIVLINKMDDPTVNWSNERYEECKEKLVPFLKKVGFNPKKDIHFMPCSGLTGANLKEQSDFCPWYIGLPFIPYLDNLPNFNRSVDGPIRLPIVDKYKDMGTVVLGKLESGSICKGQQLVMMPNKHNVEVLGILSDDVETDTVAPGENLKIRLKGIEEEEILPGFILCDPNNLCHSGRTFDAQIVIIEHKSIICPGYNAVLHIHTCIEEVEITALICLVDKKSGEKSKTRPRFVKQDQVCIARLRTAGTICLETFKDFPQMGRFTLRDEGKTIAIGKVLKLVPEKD
GSPT1, sequence (Q96SW2 whole entry, the tested form may be a part): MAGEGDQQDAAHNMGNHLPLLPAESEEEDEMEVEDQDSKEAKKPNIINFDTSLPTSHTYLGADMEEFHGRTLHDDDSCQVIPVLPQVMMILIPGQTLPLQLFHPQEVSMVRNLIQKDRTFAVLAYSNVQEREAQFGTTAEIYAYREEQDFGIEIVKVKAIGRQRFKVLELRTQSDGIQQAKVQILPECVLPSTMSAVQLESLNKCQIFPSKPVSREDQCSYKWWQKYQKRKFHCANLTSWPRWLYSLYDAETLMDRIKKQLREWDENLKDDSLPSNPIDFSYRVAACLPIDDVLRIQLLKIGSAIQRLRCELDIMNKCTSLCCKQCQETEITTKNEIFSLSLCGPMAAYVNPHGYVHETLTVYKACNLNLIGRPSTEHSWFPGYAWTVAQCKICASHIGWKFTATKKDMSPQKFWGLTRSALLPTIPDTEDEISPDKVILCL
GSPT1, sequence (Q16531 whole entry partner, the tested form may be a part): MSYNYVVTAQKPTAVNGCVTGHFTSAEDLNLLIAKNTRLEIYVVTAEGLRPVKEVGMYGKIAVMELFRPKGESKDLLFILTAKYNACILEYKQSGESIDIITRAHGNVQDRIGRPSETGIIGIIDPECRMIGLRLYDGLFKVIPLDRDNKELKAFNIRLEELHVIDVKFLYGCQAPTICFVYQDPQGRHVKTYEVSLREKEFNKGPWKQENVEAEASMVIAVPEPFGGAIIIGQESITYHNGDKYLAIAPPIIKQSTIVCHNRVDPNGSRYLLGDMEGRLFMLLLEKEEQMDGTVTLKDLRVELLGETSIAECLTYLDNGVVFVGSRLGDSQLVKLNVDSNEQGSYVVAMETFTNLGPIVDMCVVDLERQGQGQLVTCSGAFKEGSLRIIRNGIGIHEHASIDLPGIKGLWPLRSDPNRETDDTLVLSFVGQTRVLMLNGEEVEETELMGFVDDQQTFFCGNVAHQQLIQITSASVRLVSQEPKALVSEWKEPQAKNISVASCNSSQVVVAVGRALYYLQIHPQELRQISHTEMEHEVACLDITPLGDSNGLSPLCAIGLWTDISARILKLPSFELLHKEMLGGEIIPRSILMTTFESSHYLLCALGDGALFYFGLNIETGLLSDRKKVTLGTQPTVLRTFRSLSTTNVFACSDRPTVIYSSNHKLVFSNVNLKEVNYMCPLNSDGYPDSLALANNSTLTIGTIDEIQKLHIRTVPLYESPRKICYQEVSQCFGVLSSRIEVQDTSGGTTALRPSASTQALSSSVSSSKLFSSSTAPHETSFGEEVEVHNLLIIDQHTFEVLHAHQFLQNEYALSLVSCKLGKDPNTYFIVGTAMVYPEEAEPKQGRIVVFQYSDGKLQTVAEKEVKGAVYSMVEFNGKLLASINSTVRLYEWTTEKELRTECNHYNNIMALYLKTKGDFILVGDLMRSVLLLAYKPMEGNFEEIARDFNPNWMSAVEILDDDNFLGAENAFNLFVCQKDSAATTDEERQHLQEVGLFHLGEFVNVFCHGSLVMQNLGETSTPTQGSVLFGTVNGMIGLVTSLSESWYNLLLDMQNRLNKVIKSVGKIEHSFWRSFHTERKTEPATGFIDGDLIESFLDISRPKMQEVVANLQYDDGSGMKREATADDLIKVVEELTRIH
Cyclin E1, sequence (P24864 whole entry): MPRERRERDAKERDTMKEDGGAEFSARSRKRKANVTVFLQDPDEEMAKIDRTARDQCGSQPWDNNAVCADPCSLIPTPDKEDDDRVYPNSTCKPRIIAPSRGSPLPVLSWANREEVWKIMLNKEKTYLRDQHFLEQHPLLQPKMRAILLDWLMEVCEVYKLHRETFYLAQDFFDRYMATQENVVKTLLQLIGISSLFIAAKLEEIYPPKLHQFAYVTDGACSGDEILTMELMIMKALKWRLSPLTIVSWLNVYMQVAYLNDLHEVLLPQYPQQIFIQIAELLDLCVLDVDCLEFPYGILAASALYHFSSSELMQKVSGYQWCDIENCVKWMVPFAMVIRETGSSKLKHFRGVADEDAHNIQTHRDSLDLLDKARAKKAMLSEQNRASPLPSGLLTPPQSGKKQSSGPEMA
Cyclin E1, sequence (Q96SW2 whole entry): as the sequence (Q96SW2 whole entry, the tested form may be a part) above
Cyclin E1, sequence (Q16531 whole entry partner): as the sequence (Q16531 whole entry partner, the tested form may be a part) above

| Structure (SMILES) | IC50 (Phospho-Rb (Ser807/811)) | DC50 (GSPT1) | Dmax (GSPT1) | DC50 (Cyclin E1) | Dmax (Cyclin E1) | Ratio of GSPT1 DC50/Cyclin E1 DC50 (Cyclin E1) | Emax (Phospho-Rb (Ser807/811)) |
| --- | --- | --- | --- | --- | --- | --- | --- |
| COc1c(COC(=O)Nc2ccc(Oc3ccc(F)c(C)c3)cc2C)ccc2c1C(=O)N(C1CCC(=O)NC1=O)C2 (stereo not shown) [Example 82, [2-(2,6-dioxopiperidin-3-yl)-4-methoxy-3-oxo-2,3-dihydro-1H-isoindol-5-yl]methyl N-[4-(4-fluoro-3-methylphenoxy)-2-methylphenyl]carbamate] | 354 nM | > 14 µM | 25% | 327 nM | 109% | >43 | 97% |
| COc1c(COC(=O)Nc2ccc(Oc3cccc(Br)c3)cc2)ccc2c1C(=O)N(C1CCC(=O)NC1=O)C2 (stereo not shown) [Example 10, [2-(2,6-dioxopiperidin-3-yl)-4-methoxy-3-oxo-2,3-dihydro-1H-isoindol-5-yl]methyl N-[4-(3-bromophenoxy)phenyl]carbamate] | 352 nM | > 14 µM | 54% | 114 nM | 106% | >123 | 105% |
| COc1c(COC(=O)Nc2ccc(Oc3cc(F)c(F)cc3F)cc2F)ccc2c1C(=O)N(C1CCC(=O)NC1=O)C2 (stereo not shown) [Example 43, [2-(2,6-dioxopiperidin-3-yl)-4-methoxy-3-oxo-2,3-dihydro-1H-isoindol-5-yl]methyl N-[2-fluoro-4-(2,4,5-trifluorophenoxy)phenyl]carbamate] | 131 nM | > 14 µM | 33% | 165 nM | 111% | >85 | 121% |
| COc1cc(Oc2ccc(F)cc2OC)ccc1NC(=O)OCc1ccc2c(c1OC)C(=O)N(C1CCC(=O)NC1=O)C2 (stereo not shown) [Example 50, [2-(2,6-dioxopiperidin-3-yl)-4-methoxy-3-oxo-2,3-dihydro-1H-isoindol-5-yl]methyl N-[4-(4-fluoro-2-methoxyphenoxy)-2-methoxyphenyl]carbamate] | 2080 nM | > 14 µM | 25% | 463 nM | 77% | >30 | 77% |
| COc1c(COC(=O)Nc2ccc(Oc3ccc(F)cc3)cc2)ccc2c1C(=O)N(C1CCC(=O)NC1=O)C2 (stereo not shown) [Example 84, [2-(2,6-dioxopiperidin-3-yl)-4-methoxy-3-oxo-2,3-dihydro-1H-isoindol-5-yl]methyl N-[4-(4-fluorophenoxy)phenyl]carbamate] | 254 nM | > 14 µM | 22% | 94 nM | 108% | >149 | 95% |
| COc1c(COC(=O)Nc2ccc(Cc3ccc(F)c(Cl)c3)cc2)ccc2c1C(=O)N(C1CCC(=O)NC1=O)C2 (stereo not shown) [Example 21, [2-(2,6-dioxopiperidin-3-yl)-4-methoxy-3-oxo-2,3-dihydro-1H-isoindol-5-yl]methyl N-{4-[(3-chloro-4-fluorophenyl)methyl]phenyl}carbamate] | 818 nM | > 14 µM | 14% | 40 nM | 101% | >353 | 92% |

More lines, main results first:

| IC50 (Phospho-Rb (Ser807/811)) | DC50 (GSPT1) | Dmax (GSPT1) | DC50 (Cyclin E1) | Dmax (Cyclin E1) | Ratio of GSPT1 DC50/Cyclin E1 DC50 (Cyclin E1) | Structure (SMILES) | Emax (Phospho-Rb (Ser807/811)) |
| --- | --- | --- | --- | --- | --- | --- | --- |
| 640 nM | > 14 µM | 29% | 282 nM | 106% | >50 | COc1c(COC(=O)Nc2ccc(Oc3ccc4sccc4c3)cc2)ccc2c1C(=O)N(C1CCC(=O)NC1=O)C2 (stereo not shown) [Example 114, [2-(2,6-dioxopiperidin-3-yl)-4-methoxy-3-oxo-2,3-dihydro-1H-isoindol-5-yl]methyl N-[4-(1-benzothiophen-5-yloxy)phenyl]carbamate] | 110% |
| 36 nM | > 14 µM | 7% | 88 nM | 104% | >159 | COCCOc1c(COC(=O)Nc2ccc(Oc3ccc(F)c(F)c3)cc2F)ccc2c1C(=O)N(C1CCC(=O)NC1=O)C2 (stereo not shown) [Example 169, [2-(2,6-dioxopiperidin-3-yl)-4-(2-methoxyethoxy)-3-oxo-2,3-dihydro-1H-isoindol-5-yl]methyl N-[4-(3,4-difluorophenoxy)-2-fluorophenyl]carbamate] | 120% |
| 163 nM | > 14 µM | 15% | 195 nM | 103% | >72 | CC(C)Oc1c(COC(=O)Nc2ccc(Oc3ccc(F)cc3Cl)cc2)ccc2c1C(=O)N(C1CCC(=O)NC1=O)C2 (stereo not shown) [Example 124, [2-(2,6-dioxopiperidin-3-yl)-3-oxo-4-(propan-2-yloxy)-2,3-dihydro-1H-isoindol-5-yl]methyl N-[4-(2-chloro-4-fluorophenoxy)phenyl]carbamate] | 121% |
| 19 nM | > 14 µM | 33% | 62 nM | 110% | >226 | COCCOc1c(COC(=O)Nc2ccc(Oc3ccc(F)c(F)c3)cc2)ccc2c1C(=O)N(C1CCC(=O)NC1=O)C2 (stereo not shown) [Example 168, [2-(2,6-dioxopiperidin-3-yl)-4-(2-methoxyethoxy)-3-oxo-2,3-dihydro-1H-isoindol-5-yl]methyl N-[4-(3,4-difluorophenoxy)phenyl]carbamate] | 118% |
